Assay results taken from patent publication US20060205642A1, “Oral methods of treatment using proANF peptides” (priority 2005, published 2006).

Columns and labels:
[1] = Infusion into human subjects with Class III NYHA congestive heart failure; format: in vivo, humans
Procedure: Human proANF's 1-30, 31-67, 79-98, and 99-126 (i.e., ANF) were infused into human subjects with Class III New York Heart Association congestive heart failure (CHF). An identical protocol to that used in example V where these peptides were infused into healthy human subjects was utilized. (See Attachment C and F for a detailed description of this protocol). The human subjects with congestive heart failure received an identical dose (0.1 μg/kg body wt/minute for 60 minutes) that the healthy human subjects received. […] This striking urine output secondary to proANF 31-67 was significant at P<0.0001 compared to the pre-infusion output of the congestive heart failure subjects (n=6).

[2] = Rat clearance model (diuresis and salt excretion); format: in vivo, Munich-Wistar rats; conditions: for FENa, fractional excretion of sodium / UNa, urinary sodium / UNaV, urinary sodium excretion rate / V, urine flow rate: means ± SE
Procedure: The same three peptides and ANF from Example I are tested using the rat clearance model. Six control rats and six experimental Munich-Wistar rats, each weighing 150-200 grams, are used for each peptide, with catheters being placed in both jugular veins and in the femoral artery. The ureters are cannulated for simultaneous urine collections with femoral artery blood collections.
After inserting the catheters, a stabilization of one hour is allowed. A 10 μg/kg bolus of each of the respective human sequences of the peptides is given via the jugular vein to six experimental rats followed by a sustaining infusion of 0.1 μg/kg/min for 60 minutes. Blood and urine samples are collected at 20 minute intervals during this 60 minute infusion. In both the control and experimental animals, hematocrits and plasma sodium values remained at the same levels pre- and post-infusion while blood pressure decreased with each of these peptides (see Attachment B).

[3] = tested on: particulate guanylate cyclase; test: Particulate guanylate cyclase activity in the kidney; format: biochemical; conditions: 1 μM; whole kidney homogenates, renal cortical and medullary membranes, isolated distal nephrons
Procedure: Testing is also carried out to determine biologic effects of these peptides by measuring their effects on particulate guanylate activity in the kidney.

[4] = A, control period (before peptide)
[5] = B, first 60-minute experiment period, 10 μg/kg bolus then 0.1 μg/kg/min
[6] = C, second 60-minute experimental period

H-EVVPPQVLSEPNEEAGAALSPLPEVPPWTGEVSPAQR-OH [proANF 31-67]
FENa 20 minutes after infusion began ([1]; CHF): doubled | FENa at the end of the infusion vs baseline ([1]; CHF): 4.5 fold | decrease of central venous pressure ([1]; CHF): 27% | decrease of pulmonary capillary wedge pressure ([1]; CHF): 33% | heart rate ([1]; CHF): did not change significantly | increase of cardiac index ([1]; CHF): 35% | increase of cardiac output ([1]; CHF): 34% | increase of stroke volume index ([1]; CHF): 24% | mean pulmonary artery pressure ([1]; CHF): did not change significantly | sodium excretion within 20 minutes ([1]; CHF): doubling | enhancement of sodium excretion ([1]; CHF subjects, 100 ng/kg body weight/min for 60 minutes): three-to-eight fold | urine output in 20 minutes ([1]; CHF, 0.1 μg/kg body wt/minute for 60 minutes): doubled | urine output at the end of the 60 minute infusion ([1]; CHF, 0.1 μg/kg body wt/minute, n=6): 4.8 fold | fractional excretion of sodium (in words) ([1]; CHF, 100 ng/kg body weight per minute for 60 minutes): significantly (P<0.05) increased | maximum increase of fractional excretion of sodium (FENa) ([1]; CHF, P<0.001): 6 fold | sodium excretion 3 hours after infusion was stopped vs baseline ([1]; CHF, P<0.01): 3 fold | decrease of pulmonary vascular resistance ([1]; CHF, during the infusion): 25% | decrease of systemic vascular resistance ([1]; CHF, during the infusion): 24% | urine output 3 hours after stopping the infusion vs pre-infusion values ([1]; CHF, n=6): 4.3 fold | urine output 3 hours after stopping the infusion ([1]; CHF, n=6, baseline 1.56±0.35 mL/min): 6.7 ± 0.65 mL/min | cardiac index after proANF 31-67 ([1]; CHF, from 2.66±0.01): 3.58±0.01 L·min^−1·m^−2 | cardiac output after proANF 31-67 ([1]; CHF, from 5.35±0.9 L/min): 7.9 ± 1.2 L/min | effects in persons with CHF compared to healthy individuals ([1]; diuretic and natriuretic effects): not blunted (i.e., decreased) compared to healthy individuals | adverse effects ([1]; human, in vivo): no adverse effects | hypotension ([1]; human, in vivo): None became hypotensive | increase in urinary volume and flow ([1]; one CHF patient, for six hours after infusion was stopped): 2 fold | FENa, fractional excretion of sodium [2, 4]: 0.057 ± 0.012% | UNa, urinary sodium [2, 4]: 21.02 ± 4.41 meq/1 | UNaV, urinary sodium excretion rate [2, 4]: 144.08 ± 56.75 μeq · min^−1 · g kidney wt^−1 | V, urine flow rate [2, 4]: 2.63 ± 0.24 μl · min^−1 · g kidney wt^−1 | V, urine flow rate ([2]; B, first 60-minute experiment period, 10 μg/kg bolus then 0.1 μg/kg/min via jugular vein): 9.36 ± 3.14 μl · min^−1 · g kidney wt^−1 | FENa, fractional excretion of sodium [2, 5]: 0.457 ± 0.156% | UNa, urinary sodium [2, 5]: 111.73 ± 21.37 meq/1 | UNaV, urinary sodium excretion rate [2, 5]: 1,057 ± 371.69 μeq · min^−1 · g kidney wt^−1 | V, urine flow rate ([2]; C, second 60-minute experimental period, 10 μg/kg bolus then 0.1 μg/kg/min): 8.84 ± 1.86 μl · min^−1 · g kidney wt^−1 | FENa, fractional excretion of sodium [2, 6]: 0.444 ± 0.155% | UNa, urinary sodium [2, 6]: 129.33 ± 24.73 meq/1 | UNaV, urinary sodium excretion rate [2, 6]: 1,077.63 ± 306.10 μeq · min^−1 · g kidney wt^−1 | potassium excretion ([2]; rat clearance model): does not cause increased potassium excretion | particulate guanylate cyclase activity [3]: enhance
